Patent US20090203877A1, “X-RAY-DENSE CONJUGATE” (Eberhard-Karls-Universitaet Tuebingen Universitaetsklinkum, priority 2006, published 2009)
Entries after “also recorded” stand apart in the source; their conditions may differ.

Columns and labels:
Assay type in all cases: cell-based
[1] = tested on: human malignant LN18 glioma cells; experiment: Computer tomography, signal density of cell centrifugates; conditions: 260 μM, 20 min
Procedure: After an incubation of 20 minutes at 37° C./5% CO2 the cells were washed three times with PBS buffer and centrifuged at 800 rpm (rounds per minute) for 5 minutes. The fluorescence was measured in Becton Dickinson FACSCalibur as described under 1.4. The computer tomography was performed as described under 1.5.1. The examinations were repeated two times. For the CT and FACS examinations human LN-18 and U373 glioma cells were cultivated in 75 cm^2 culture flasks (Corning Costar) (70% confluency) (conditions as described under 1.4). Accutase™ (PAA Laboratories) was added to detach the cells from the bottom of the culture flasks. The cells were collected and then distributed on Eppendorf tubes (6×10^6 cells per tube). The cells in the first two tubes serve as a control (in each case only PBS, LN18 and U373 glioma cells, native). The cells in the other tubes (in each case LN18 and U373 glioma cells) were incubated with a 260 μM or 2.6 mM solution of the conjugate 12 for 20 minutes at 37° C. and 5% CO2 and in the following washed for three times with PBS buffer and centrifuged for 5 minutes with 800 rpm (rounds per minute). For a small amount of the cells it was tested by the MMT test (see 1.4) how many of the cells were still viable. The computer tomography of the cell centrifuges was performed with the Somatom Sensation 16 (Siemens). An Orbita CT spiral was used: tube voltage 120 KV, effective mAs 550, time of imaging TI: 1.5, SL 0.75/0.75/4.5, FOV: 50 0/52, GT: 0.0, kernel: U70, window: intervertebral disc. 3D images were made with the InSpace Software (Syngo CT 2006G) (Siemens AG, Erlangen, Germany). […] Accutase™ (PAA Laboratories) was added to detach the cell from the culture bottom. The cells were collected and then distributed on Eppendorf-tubes (6×10^6 cells per tube).

[2] = tested on: human malignant U373 glioma cells; experiment: Computer tomography, signal density of cell pellets; conditions: 260 μM, 20 min
Procedure: (§1) For CT and FACS human U373 glioma cells were grown under the same conditions in 75 cm^2 culture flasks (Corning Costar, Bodenheim, Germany) (70% confluency). Accutase™ (PAA laboratories, Pasching, Austria) was added to achieve detachment of the cells which were harvested and subsequently aliquoted into Eppendorf tubes (6×10^6 cells per tube). As in the investigations performed by fluorescence microscopy, the cells in the first tube served as a control (PBS only). The cells in the other tubes were incubated with 260 μM Ultravist, 260 μM TIBA in PBS and 26 μM, 260 μM and 2.6 mM conjugates 1-4 in PBS. After a 20 minute incubation period at 37° C. in an atmosphere of 5% CO2, the cells were washed three times in PBS and centrifuged at 800 rpm for 5 minutes.
The inner ear spiral CT protocol consisted of: tube voltage 120 KV, effective mAs 550, time of imaging TI: 1.5, SL 0.75/0.75/4.5, FOV: 50 0/52, kernel: U70, window: intervertebral disc.
3D-images were obtained using InSpace Software (Syngo CT 2006G) (Siemens AG, Erlangen, Germany).
(§2) After an incubation of 20 minutes at 37° C./5% CO2 the cells were washed three times with PBS buffer and centrifuged at 800 rpm (rounds per minute) for 5 minutes. The fluorescence was measured in Becton Dickinson FACSCalibur as described under 1.4. The computer tomography was performed as described under 1.5.1. The examinations were repeated two times. […]
An Orbita CT spiral was used: tube voltage 120 KV, effective mAs 550, time of imaging TI: 1.5, SL 0.75/0.75/4.5, FOV: 50 0/52, GT: 0.0, kernel: U70, window: intervertebral disc. 3D images were made with the InSpace Software (Syngo CT 2006G) (Siemens AG, Erlangen, Germany). […]

[3] = tested on: human malignant LN18 glioma cells; experiment: Uptake/staining of cells by FITC-labelled conjugates (CLSM, FACS, semi-thin sections); conditions: 260 μM; for nuclear staining of cells (CLSM), in words: 20 min; for heavily stained cells: FIGS. 8, 13-16; for staining of nucleoli in semi-thin sections (about 0.4 μm): after incubation
Procedure: (§3) The human malignant U373 and LN18 glioma cells were cultivated in 75 cm^2 culture flasks (Corning Costar) (70% confluency) under the conditions as described under 1.4, detached from the flask bottom with Accutase™ (PAA Laboratories) and in the following distributed on Eppendorf tubes (Eppendorf, Hamburg, Germany) (6×10^6 per tube). The cells in the first tube serve as a control (only PBS buffer only). The cells in the other ten tubes were each incubated with benzoic acid (BA), monoiodobenzoic acid (MIBA) or diiodobenzoic acid (DIBA) alone (260 μM), conjugate 3 alone (260 μM), conjugate 3 plus either BA, MIBA or DIBA (260 μM), respectively, and the conjugates 9, 10, and 11 alone. (260 μM).
as §2
(§4) The FACS analysis was performed as described under 1.4. The assay was repeated two times.
(§5) For the CT and FACS examinations human LN18 and U373 glioma cells were cultivated in 75 cm^2 culture flasks (70% confluency) (conditions as described under section 1). Accutase™ (PAA Laboratories) was added to detach the cell from the culture bottom. The cells were collected and then distributed on Eppendorf-tubes (6×10^6 cells per tube). […] The next three tubes were used for the coincubation of the cells either with trichlorobenzoic acid (TCBA), trifluorobenzoic acid (TFBA) or tribromophenyl Isocyanat (TBPI) and the NLS-FITC-conjugate 3 (260 μM). As control cells were used which were only either incubated with CIBA, FIBA, TBPI (in each case 260 μM in PBS) or with PBS-buffer (native control) alone. […] The computer tomography and FACS analysis of the cell centrifuges were performed as described in 1.5.1 or 1.4, respectively for three times.
All measurements were performed on living cells.
All measurements were performed on living cells in triplicates.
A part of the cells which were stained for the FACS analysis, was fixed by paraformaldehyl with 2% Agar, dehydrogenized in ethanol, embedded in Lowicryl K4M (Polysciences, Eppelheim, Germany) and according to the information of the manufacturer UV-polymerised at room temperature. Semi-thin sections (about 0.4 μm) were cut and evaluated by means of fluorescence microscopy.

[4] = tested on: human malignant LN18 glioma cells; experiment: Cell viability / cell death (annexin-V-Alexa 568 binding, propidium iodide, FACS scatter morphology); conditions: 260 μM, 20 min, substance alone
Procedure: All measurements were performed on living, non-fixed cells. […] All measurements were performed on living cells. […] All measurements were performed on living cells in triplicates. […] All measurements were performed on living cells.

[5] = tested on: human malignant U373 glioma cells; experiment: Uptake/staining of cells by FITC-labelled conjugates (fluorescence microscopy, CLSM, FACS, semi-thin sections); conditions: 260 μM
Procedure: Fluorescence was measured in a Becton Dickinson FACSCalibur. […] The investigations were performed in triplicate.
as §1
The FACS analysis was performed as described under 1.4.
as §3
After an incubation of 20 minutes at 37° C./5% CO2 the cells were washed three times with PBS buffer and centrifuged at 800 rpm (rounds per minute) for 5 minutes. The fluorescence was measured in Becton Dickinson FACSCalibur as described under 1.4. The computer tomography was performed as described under 1.5.1. The examinations were repeated two times.
For the CT and FACS examinations human LN-18 and U373 glioma cells were cultivated in 75 cm^2 culture flasks (Corning Costar) (70% confluency) (conditions as described under 1.4). Accutase™ (PAA Laboratories) was added to detach the cells from the bottom of the culture flasks. The cells were collected and then distributed on Eppendorf tubes (6×10^6 cells per tube). The cells in the first two tubes serve as a control (in each case only PBS, LN18 and U373 glioma cells, native). The cells in the other tubes (in each case LN18 and U373 glioma cells) were incubated with a 260 μM or 2.6 mM solution of the conjugate 12 for 20 minutes at 37° C. and 5% CO2 and in the following washed for three times with PBS buffer and centrifuged for 5 minutes with 800 rpm (rounds per minute). For a small amount of the cells it was tested by the MMT test (see 1.4) how many of the cells were still viable. The computer tomography of the cell centrifuges was performed with the Somatom Sensation 16 (Siemens).
as §4
as §5, with “times. […]” for “times.”

Which “CT signal density of cell centrifugates” value [1] does the source give for “PKKKRKVK(FITC)GGK(TBPI) (PKKKRKVKGGK; FITC, GGK linker, TBPI) [conjugate 15, FITC-labelled tribromophenyl isocyanate-NLS-conjugate]” here?
The value was “did not result in an increase of the signal density”.

And the “CT signal density of cell pellets” value [2]?
Its value is “did not result in an increase of the signal density”.

And the “cells strongly stained by FITC, FACS histogram” value (“cells strongly stained by FITC” for short) [3]?
The value was “clear increase of the cells which are strongly stained by FITC”.

What about the “nuclear staining of cells (CLSM), in words” value ([3]; listed as K15) of the same substance?
Its value is “strong staining of the nucleus in almost all cells; also recorded: nuclei of the LN18 glioma cells accumulate”.

And the heavily stained cells [3]?
Its heavily stained cells is 78%.

What about the “staining of nucleoli in semi-thin sections (about 0.4 μm)” value [3] of the same substance?
The value was “strongly stained; also recorded: accumulate in the nucleoli”.

And the “cell death / vitality (annexin-V-Alexa 568, propidium iodide)” value (from here on “cell death / vitality”) [4]?
Its value is “signs of cell death”.

And the “cell death / vitality” value ([4]; listed as K15)?
The value was “Alexa-annexin binds to the surface of the cells”.

What about the “cells strongly stained by FITC” value [5] of the same substance?
The value was “clear increase of the cells which are strongly stained by FITC”.

“PKKKRKVK(FITC)GGK(TFBA) (PKKKRKVKGGK; FITC, GGK linker, TFBA) [conjugate 13, FITC-labelled NLS with trifluorobenzoic acid]” was tested. Which “CT signal density of cell centrifugates” value [1] did it give?
The value was “did not result in an increase of the signal density”.

And the “CT signal density of cell pellets” value [2]?
The value was “did not result in an increase of the signal density”.

And the “cells strongly stained by FITC” value [3]?
The value was “shift of the histogram peak to the right”.

And the “nuclear staining of cells (CLSM), in words” value [3]?
The value was “stains a large number of cells in the nucleus”.

And the heavily stained cells [3]?
The heavily stained cells was 78%.

What about the “staining of nucleoli in semi-thin sections (about 0.4 μm)” value [3] of the same substance?
The value was “accumulate in the nucleoli”.

And the “cell death / vitality” value [4]?
Its value is “no longer vital; also recorded: signs of cell death”.

What about the “cells strongly stained by FITC” value [5] of the same substance?
The value was “shift of the histogram peak to the right”.

Which results are given for “PKKKRKVK(FITC)GGK(TCBA) (PKKKRKVKGGK; FITC, GGK linker, TCBA) [conjugate 14, FITC-labelled NLS with trichlorobenzoic acid]”?
CT signal density of cell centrifugates [1]: did not result in an increase of the signal density; CT signal density of cell pellets [2]: did not result in an increase of the signal density; cells strongly stained by FITC, FACS histogram [3]: shift of the histogram peak to the right; nuclear staining of cells (CLSM), in words [3]: almost all nuclei are stained; heavily stained cells [3]: 78%; staining of nucleoli in semi-thin sections (about 0.4 μm) [3]: accumulate in the nucleoli; cell death / vitality (annexin-V-Alexa 568, propidium iodide) [4]: dead and signs of cell death; cells strongly stained by FITC, FACS histogram [5]: shift of the histogram peak to the right
